One test relates to callose deposition. Put plainly: Callose staining in Arabidopsis leaves. The test is classed as in vivo, Arabidopsis thaliana. As to conditions: 6 and 24 h after treatment; 100 μM AA9_COS, 100 μM cellobiose or 1 μM FLG22; 5-week old plants. How it is done:
Callose deposits quantification was performed essentially as described by Zarattini et al. (The bile acid deoxycholate elicits defences in Arabidopsis and reduces bacterial infection. Mol Plant Pathol. 2017, vol. 18(4), 540-554). […] Leaves were examined by stereofluorescence microscopy with an Azio Zoom V.16 (Carl Zeiss Inc., Oberkochen, Germany) and callose spots were quantified using ImageJ software.
Among them, several genes were associated to callose deposition in the cell wall (FIG. 4).

In the next test the test system is Botrytis cinerea. Put plainly: Protection of tomato plants against Botrytis cinerea (lesion areas). It counts as in vivo. As to conditions: 100 μM; 4 weeks old tomato plants; compared with 100 μM AA9_COS. How it is done:
All experiments were carried on 4 weeks old tomato plants infected with 10^6 spores per millilitres of Botrytis cinerea.
Protection of tomatoes plant against pathogen Botrytis cinerea using several combinations of native cellodextrines, and C1-oxidised, C4-oxidised, and optionally C1- and C4-oxidised (double oxidised) cellodextrines was tested (FIG. 14). In particular, the numerals in FIG. 14 represent mixtures with the following molar proportions of the respective cellodextrins components: • native:C1-oxidised:C4-oxidised • (1) 4:5:1; (2) 6.5:3:0.5; (3) 3:6.5:0.5; (4) 4:3:3; (5) 4:1:5; (6) 0.5:9:0.5; • native:C1-oxidised:C4-oxidised:doubly oxidised • (7) 0.5:4:0.5:5; (8) 2.5:2.5:2.5:2.5.
All experiments were carried on 4 weeks old tomato plants infected with 10^6 spores of Botrytis cinerea. All mixtures were applied having the same molar mass concentration of 100 μM.

From patent US12628822B2, “Plant pathogen defence elicitors” (UNIVERSITÉ LIBRE DE BRUXELLES, priority 2020, dated 2026) come the findings set out here.

`OC[C@H]1O[C@@H](O[C@H]2[C@H](O)[C@@H](O)[C@H](O)O[C@@H]2CO)[C@H](O)[C@@H](O)[C@@H]1O` [Cellobiose, β-D-glucopyranosyl(1→4)D-glucopyranose]: the callose accumulation in the test with callose deposition is “no visible callose spots”. Besides, the “protection of tomato plants (size of lesion areas)” value with Botrytis cinerea is “less protective effect”.
